Results published in ChEMBL document CHEMBL1201862, “PubChem BioAssay data set” (2004).
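Interpolation was linear, between the two tested concentrations surrounding the appropriate level; five concentrations were tested over 48 hours in 96-well plates. The concentration for 50% growth inhibition is given as GI50.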 Activity calls are given as the source filed them. No stated cut-off is given here; in the data, active = GI50 up to about 1.1 µM and inactive = higher.

What was measured:
Assay in all cases: DTP human tumour cell line panel, 48 h
M14 = test system: M14
MDA-N = test system: MDA-N
SF-295 = test system: SF-295
Hs-578T = test system: Hs-578T
CAKI-1 = test system: CAKI-1
A549 = test system: A549
U-251 = test system: U-251
SF-539 = test system: SF-539
HCT-15 = test system: HCT-15
OVCAR-5 = test system: OVCAR-5
T47D = test system: T47D
NCI/ADR-RES = test system: NCI/ADR-RES
SNB-19 = test system: SNB-19
SK-OV-3 = test system: SK-OV-3
ACHN = test system: ACHN
IGROV-1 = test system: IGROV-1
NCI-H226 = test system: NCI-H226
786-0 = test system: 786-0
RPMI-8226 = test system: RPMI-8226
NCI-H460 = test system: NCI-H460
NCI-H522 = test system: NCI-H522
HCC 2998 = test system: HCC 2998
A498 = test system: A498
SK-MEL-28 = test system: SK-MEL-28
HCT-116 = test system: HCT-116
COLO 205 = test system: COLO 205
RXF 393 = test system: RXF 393
MDA-MB-435 = test system: MDA-MB-435
UACC-257 = test system: UACC-257
SNB-75 = test system: SNB-75
EKVX = test system: EKVX
DU-145 = test system: DU-145
MOLT-4 = test system: MOLT-4
SW-620 = test system: SW-620
BT-549 = test system: BT-549
NCI-H23 = test system: NCI-H23
LOX IMVI = test system: LOX IMVI
OVCAR-3 = test system: OVCAR-3
MDA-MB-231 = test system: MDA-MB-231
SF-268 = test system: SF-268
K562 = test system: K562
TK-10 = test system: TK-10
SN12C = test system: SN12C
OVCAR-8 = test system: OVCAR-8
Malme-3M = test system: Malme-3M
HOP-62 = test system: HOP-62
OVCAR-4 = test system: OVCAR-4
UACC-62 = test system: UACC-62
PC-3 = test system: PC-3
UO-31 = test system: UO-31
KM12 = test system: KM12
MCF7 = test system: MCF7
HOP-92 = test system: HOP-92
HT-29 = test system: HT-29
SK-MEL-2 = test system: SK-MEL-2

CCCCSC1=N/C(=C\c2ccc(N(C)C)cc2)C(Cl)=N1
GI50 (M14): > 100 µM (inactive) | GI50 (MDA-N): > 100 µM (inactive) | GI50 (SF-295): > 100 µM (inactive) | GI50 (Hs-578T): > 100 µM (inactive) | GI50 (CAKI-1): > 100 µM (inactive) | GI50 (A549): > 100 µM (inactive) | GI50 (U-251): > 100 µM (inactive) | GI50 (SF-539): > 100 µM (inactive) | GI50 (HCT-15): > 100 µM | GI50 (OVCAR-5): > 100 µM (inactive) | GI50 (T47D): > 100 µM (inactive) | GI50 (NCI/ADR-RES): > 100 µM (inactive) | GI50 (SNB-19): > 100 µM (inactive) | GI50 (SK-OV-3): > 100 µM (inactive) | GI50 (ACHN): > 100 µM (inactive) | GI50 (IGROV-1): > 100 µM (inactive) | GI50 (NCI-H226): > 100 µM (inactive) | GI50 (786-0): > 100 µM (inactive) | GI50 (RPMI-8226): > 100 µM (inactive) | GI50 (NCI-H460): > 100 µM (inactive) | GI50 (NCI-H522): > 100 µM (inactive) | GI50 (HCC 2998): > 100 µM (inactive) | GI50 (A498): 78.2 µM (inactive) | GI50 (SK-MEL-28): > 100 µM (inactive) | GI50 (HCT-116): > 100 µM (inactive) | GI50 (COLO 205): > 100 µM (inactive) | GI50 (RXF 393): > 100 µM (inactive) | GI50 (MDA-MB-435): > 100 µM (inactive) | GI50 (UACC-257): > 100 µM (inactive) | GI50 (SNB-75): > 100 µM (inactive) | GI50 (EKVX): 89.5 µM (inactive) | GI50 (DU-145): > 100 µM (inactive) | GI50 (MOLT-4): > 100 µM (inactive) | GI50 (SW-620): > 100 µM (inactive) | GI50 (BT-549): > 100 µM (inactive) | GI50 (NCI-H23): > 100 µM (inactive) | GI50 (LOX IMVI): > 100 µM (inactive) | GI50 (OVCAR-3): > 100 µM (inactive) | GI50 (MDA-MB-231): > 100 µM (inactive) | GI50 (SF-268): > 100 µM (inactive) | GI50 (K562): > 100 µM (inactive) | GI50 (TK-10): > 100 µM (inactive) | GI50 (SN12C): > 100 µM (inactive) | GI50 (OVCAR-8): > 100 µM (inactive) | GI50 (Malme-3M): > 100 µM (inactive) | GI50 (HOP-62): > 100 µM (inactive) | GI50 (OVCAR-4): > 100 µM (inactive) | GI50 (UACC-62): 94.4 µM (inactive) | GI50 (PC-3): 76.6 µM (inactive) | GI50 (UO-31): > 100 µM (inactive) | GI50 (KM12): > 100 µM (inactive) | GI50 (MCF7): > 100 µM (inactive) | GI50 (HOP-92): > 100 µM (inactive) | GI50 (HT-29): > 100 µM (inactive) | GI50 (SK-MEL-2): > 100 µM (inactive)
